# Results from patent US9079863B2, “Crystalline forms for 5-amino-2,3-dihydrophthalazine-1,4-dione sodium salt, pharmaceutical preparations containing the same and method for the production of said forms” (METRIOPHARM AG, priority 2010, dated 2015).
# Where a name gives a salt, the structure may show the parent alone. Read-outs that look alike come from different tables or passages of the source.
# Assays:
# [1] = for Disintegration temperature: 30-500° C. in synthetic air (4 N2: 1 O2), sodium salt
# Description: (Table 5). The solid phase transformation of the dihydrate according to U.S. Pat. No. 6,483,326 B1 was measured by means of the simultaneous thermogravimetry-differential thermal analysis with a Linseis L81-077 coupled with mass spectroscopy measurement with a Netzsch STA 449 C thermobalance, with MS and FTIR coupling at 30-300° C. under helium. The disintegration temperatures of forms I-II were determined with the same device at 30-500° C. in synthetic air (4 N2: 1 O2). The data were analyzed with the factory-set software Proteus.
# physchem = conditions: saturated solution
# Description: Further, the solubility of the crystalline forms in a saturated solution was determined.
# [2] = tested on: isolated mouse bone marrow macrophages
# Description: For this purpose, isolated mouse bone marrow macrophages were first treated with form II in concentrations of 2, 20 or 200 μg/mL and stimulated 1 h after treatment with 100 ng/mL or 10 ng/mL LPS. The supernatants were collected 24 h later, and the concentration of TNF-alpha and IL-6 was measured. Not stimulated macrophages, not stimulated macrophages treated with 200 μg/mL form II and LPS-stimulated macrophages (10 or 100 ng/mL LPS) were used as controls.
# [3] = tested on: stimulated murine macrophages; conditions: 1 μg/mL LPS with 100 μg/mL
# Description: These were measured in the combination of 2 μg/mL active ingredient with macrophages stimulated with 100 ng/mL LPS as well as in the group of the macrophages stimulated with 10 ng/mL in the active ingredient concentration with 20 μg/mL.
# [4] = not infected mice; for Weight development/increase MW: over two days
# Description: (§1) In a mouse model of the Gram-positive sepsis (infection with S. pyogenes) the therapeutic usability of the crystal forms I and II of the 5-amino-2,3-dihydrophthalazine-1,4-dione sodium salt was tested. The administration of active ingredient was made parenterally 6 hours after the infection occurred. A second administration of active ingredient was made 24 hours after the first application. The test was completed 48 hours after the infection. For both forms (substance groups) three different doses were used. The mice obtained 2, 20 or 200 μg each of form I or form II per animal and application.
# (§2) The individual treatment groups comprised 5 animals each, and for the not infected controls two repetitions and for the infected controls and that groups that contained form II four repetitions were made, so that in total 180 animals were in the test.
# It is known that the toxicity of substances in an animal test with growing-up mice or rate can influence the weight development.
# S. pyogenes [5] = conditions: infected mice, sodium salt; for Weight development/increase Total MW: complete test time 48 h, survivors
# Description: as §1, §2
# In the sepsis model described in Example 3, the influence of crystal forms I and II of the 5-amino-2,3-dihydrophthalazine-1,4-dione sodium salt on the weight development of mice infected with S. pyogenes was tested. The development of the body weight during an acute infection may supply important predictive information.
# S. pyogenes [6] = conditions: 48 hours after the infection
# Description: as §1, §2
# In the sepsis model described in Example 3, the influence the crystal forms II and I of the 5-amino-2,3-dihydrophthalazine-1,4-dione sodium, salt on the probability of survival of the mice infected with S. pyogenes was tested.
# S. pyogenes [7] = conditions: for Germ load (CFU) Blood MW / Germ load (CFU) Liver MW: 48 hours after the infection, sodium salt
# Description: as §1, §2
# In the sepsis model described in Example 3, the influence of crystal forms II and I of the 5-amino-2,3-dihydrophthalazine-1,4-dione sodium salt on the germ load of the mice infected with S. pyogenes in blood and liver was tested. The test was completed 48 hours after the infection, and the germ load (CFU) existing at this time in blood and liver was determined (see Table).
# [8] = healthy mice
# Description: as §1
# Blood taking occurred after 48 hours at the end of the second application day.
# S. pyogenes [9] = conditions: 48 hours after the infection; remark: listed apart in the source
# Description: as §1
# [10] = healthy mice, end of the second application day
# Description: When administering form I and form II to healthy mice, it was investigated, whether and which influence the application has on certain liver enzymes, in particular the transaminases GOT (AST) and GPT (ALT). Blood taking occurred at the end of the second application day.
# [11] = 0.25 g in 10 mL H2O VE, stirring 500 rpm, 25° C., first minutes after addition; sodium salt
# Description: The complete dissolution of 0.25 g form I or form II, respectively, in 10 mL H2O VE was achieved under stirring (500 rpm) at 25° C.
# [12] = dose 2 μg, LPS 10 ng/mL, supernatant 24 h
# [13] = dose 2 μg, LPS 100 ng/mL, supernatant 24 h
# [14] = dose 20 μg, LPS 10 ng/mL, supernatant 24 h
# [15] = dose 20 μg, LPS 100 ng/mL, supernatant 24 h
# [16] = dose 200 μg, LPS 10 ng/mL, supernatant 24 h
# [17] = dose 200 μg, LPS 100 ng/mL, supernatant 24 h
# [18] = dose 200 μg, not stimulated (no LPS)
compound,measurement,setting,value
"Nc1cccc2c(=O)[nH][nH]c(=O)c12 [Form II, 5-amino-2,3-dihydrophthalazine-1,4-dione sodium salt]",Disintegration temperature,[1]; listed as form II,385 °C
same,Disintegration temperature,[1],385 °C ± 10 °C
same,Time for which the crystalline form is stable,[1]; room temperature (25° C.) and 40° C.,at least two
same,Solubility,"physchem; in water at room temperature, sodium salt",252 mg/mL
same,Solubility in comparison,physchem,more soluble than form I
same,Change of TNF-alpha,"[2]; 10 ng/mL LPS, 200 μg/mL",significant reduction
same,Change of TNF-alpha concentration,"[2]; 100 ng/mL LPS, all active ingredient concentrations",significant reduction
same,Change of IL-6 values,[2]; 2 μg/mL with 100 ng/mL LPS,significant reductions
same,Change of IL-6 values,[2]; 20 μg/mL with 10 ng/mL LPS,significant reductions
same,IL-6 MW,[2]; [12],3.93 ng/mL
same,TNF-alpha MW,[2]; [12],8.38 ng/mL
same,IL-6 MW,[2]; [13],2.67 ng/mL
same,TNF-alpha MW,[2]; [13],7.40 ng/mL
same,IL-6 MW,[2]; [14],1.61 ng/mL
same,TNF-alpha MW,[2]; [14],9.80 ng/mL
same,IL-6 MW,[2]; [15],4.28 ng/mL
same,TNF-alpha MW,[2]; [15],9.06 ng/mL
same,IL-6 MW,[2]; [16],3.42 ng/mL
same,TNF-alpha MW,[2]; [16],6.76 ng/mL
same,IL-6 MW,[2]; [17],4.00 ng/mL
same,TNF-alpha MW,[2]; [17],7.69 ng/mL
same,IL-6 MW,[2]; [18],0.00 ng/mL
same,TNF-alpha MW,[2]; [18],0.00 ng/mL
same,Immunostimulating effect on not LPS-induced macrophages,[2]; not LPS-induced,could not be shown
same,Effect on IL-6 values,[3],immunodepressive effect
same,Toxicity judged from weight development,[4],do not have any toxicity or at most a very small one
same,Weight development/increase MW,"[4]; 2 μg per animal and application, parenteral, sodium salt",-0.14 g
same,Weight development/increase MW,"[4]; 20 μg per animal and application, parenteral, sodium salt",1.43 g
same,Weight development/increase MW,"[4]; 200 μg per animal and application, parenteral, sodium salt",0.50 g
same,Weight development/increase MW,[4]; all doses (total),0.59 g
same,Weight development/increase Total MW,S. pyogenes [5]; 2 μg,-2.02 g
same,Weight development/increase Day 1 MW,S. pyogenes [5]; 2 μg,-0.57 g
same,Weight development/increase Total MW,S. pyogenes [5]; 20 μg,-1.69 g
same,Weight development/increase Day 1 MW,S. pyogenes [5]; 20 μg,-0.55 g
same,Weight development/increase Total MW,S. pyogenes [5]; 200 μg,-1.86 g
same,Weight development/increase Day 1 MW,S. pyogenes [5]; 200 μg,-0.72 g
same,Weight development/increase Total MW,S. pyogenes [5]; all doses (total),-1.86 g
same,Weight development/increase Day 1 MW,S. pyogenes [5]; all doses (total),-0.62 g
same,Share of surviving mice,"S. pyogenes [6]; 2 μg, sodium salt",90%
same,Share of surviving mice,S. pyogenes [6]; 20 μg,80%
same,Share of surviving mice,"S. pyogenes [6]; 200 μg, sodium salt",70%
same,Survival compared to the controls,S. pyogenes [6],increase of the share of surviving animals
same,Share of surviving mice,S. pyogenes [6]; all doses (total),80%
same,Germ load (CFU) Blood MW,S. pyogenes [7]; 2 μg,5.96 log/mL
same,Germ load (CFU) Liver MW,S. pyogenes [7]; 2 μg,6.13 log/g
same,Germ load (CFU) Blood MW,S. pyogenes [7]; 20 μg,5.88 log/mL
same,Germ load (CFU) Liver MW,S. pyogenes [7]; 20 μg,6.79 log/g
same,Germ load (CFU) Blood MW,S. pyogenes [7]; 200 μg,5.54 log/mL
same,Germ load (CFU) Liver MW,S. pyogenes [7]; 200 μg,6.14 log/g
same,Germ load (CFU) Blood MW,S. pyogenes [7]; all doses (total),5.80 log/mL
same,Germ load (CFU) Liver MW,S. pyogenes [7]; all doses (total),6.36 log/g
same,Germ count in the blood compared to the controls,S. pyogenes [7]; highest dose,tendentious germ count reduction
same,TNF-alpha MW,"[8]; 2 μg, blood after 48 hours, sodium salt",0.0 pg/mL
same,TNF-alpha MW,"[8]; 20 μg, blood after 48 hours, sodium salt",0.0 pg/mL
same,TNF-alpha MW,"[8]; 200 μg, blood after 48 hours, sodium salt",16.94 pg/mL
same,TNF-alpha MW,"[8]; all doses (total), blood after 48 hours, sodium salt",5.65 pg/mL
same,IL-6 increase,[8]; blood after 48 hours,neither in the substance groups nor in the control groups increases could be found
same,TNF-alpha increase,"[8]; compared to the other groups, sodium salt",do not cause a relevant increase
same,IL-6 in infected mice,S. pyogenes [9]; not confirmed in all repetitions,in part distinct tendencies of an IL-6 reduction
same,Liver enzyme values GOT (AST) and GPT (ALT),"S. pyogenes [9]; infected mice, some repetitions only",tendencies to reduce the liver enzyme values
same,Transaminases GOT (AST) and GPT (ALT),[10],Distinct differences between the groups could not be found
same,Initial dissolution rate,[11],higher than that of form I
